In US10028960B2, “Pyrimidine compounds as JAK kinase inhibitors” (THERAVANCE BIOPHARMA R&D IP, LLC, priority 2016, dated 2018):

How the values were obtained:
[1] = biological target: JAK1 (Homo sapiens (Human), UniProt P23458); test: LanthaScreen JAK biochemical assay, JAK1; details: for Ki: read-out: JAK 1 (pKi) (converted)
Description: (§1) A panel of four LanthaScreen JAK biochemical assays (JAK1, 2, 3 and Tyk2) were carried in a common kinase reaction buffer (50 mM HEPES, pH 7.5, 0.01% Brij-35, 10 mM MgCl2, and 1 mM EGTA). Recombinant GST-tagged JAK enzymes and a GFP-tagged STAT1 peptide substrate were obtained from Life Technologies.

[2] = biological target: JAK2 (Homo sapiens (Human), UniProt O60674); test: LanthaScreen JAK biochemical assay, JAK2
JAK2, sequence (O60674 whole entry): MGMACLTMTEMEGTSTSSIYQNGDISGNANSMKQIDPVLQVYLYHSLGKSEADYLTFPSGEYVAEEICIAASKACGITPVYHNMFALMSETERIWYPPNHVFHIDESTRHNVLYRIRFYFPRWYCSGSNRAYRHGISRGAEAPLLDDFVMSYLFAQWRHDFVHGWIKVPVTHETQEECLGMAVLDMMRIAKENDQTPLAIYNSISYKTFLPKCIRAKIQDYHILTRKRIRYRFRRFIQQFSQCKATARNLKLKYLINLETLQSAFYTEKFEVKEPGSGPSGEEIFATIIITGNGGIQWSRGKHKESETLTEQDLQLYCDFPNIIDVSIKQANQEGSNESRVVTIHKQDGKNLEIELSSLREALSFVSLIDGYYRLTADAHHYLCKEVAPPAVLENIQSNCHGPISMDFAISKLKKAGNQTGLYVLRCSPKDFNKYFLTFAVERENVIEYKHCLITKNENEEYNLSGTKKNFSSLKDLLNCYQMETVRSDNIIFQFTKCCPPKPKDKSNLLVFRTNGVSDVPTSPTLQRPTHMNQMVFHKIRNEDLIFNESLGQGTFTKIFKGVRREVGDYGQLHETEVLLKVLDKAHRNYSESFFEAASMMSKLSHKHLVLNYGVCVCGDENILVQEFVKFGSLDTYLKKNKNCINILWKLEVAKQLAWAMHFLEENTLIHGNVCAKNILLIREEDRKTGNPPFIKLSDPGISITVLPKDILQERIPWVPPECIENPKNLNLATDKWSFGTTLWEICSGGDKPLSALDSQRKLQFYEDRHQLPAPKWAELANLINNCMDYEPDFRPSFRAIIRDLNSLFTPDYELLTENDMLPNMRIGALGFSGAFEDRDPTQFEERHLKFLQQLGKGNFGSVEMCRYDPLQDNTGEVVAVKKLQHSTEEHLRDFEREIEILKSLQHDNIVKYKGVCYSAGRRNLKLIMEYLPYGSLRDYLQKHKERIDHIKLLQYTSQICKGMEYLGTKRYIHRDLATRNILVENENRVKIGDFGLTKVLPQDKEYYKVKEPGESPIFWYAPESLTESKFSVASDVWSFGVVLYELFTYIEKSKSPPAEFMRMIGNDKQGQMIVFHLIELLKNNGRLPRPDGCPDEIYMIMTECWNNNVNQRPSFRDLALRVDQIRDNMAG
Description: as §1

[3] = biological target: JAK3 (Homo sapiens (Human), UniProt P52333); test: LanthaScreen JAK biochemical assay, JAK3
JAK3, sequence (P52333 whole entry): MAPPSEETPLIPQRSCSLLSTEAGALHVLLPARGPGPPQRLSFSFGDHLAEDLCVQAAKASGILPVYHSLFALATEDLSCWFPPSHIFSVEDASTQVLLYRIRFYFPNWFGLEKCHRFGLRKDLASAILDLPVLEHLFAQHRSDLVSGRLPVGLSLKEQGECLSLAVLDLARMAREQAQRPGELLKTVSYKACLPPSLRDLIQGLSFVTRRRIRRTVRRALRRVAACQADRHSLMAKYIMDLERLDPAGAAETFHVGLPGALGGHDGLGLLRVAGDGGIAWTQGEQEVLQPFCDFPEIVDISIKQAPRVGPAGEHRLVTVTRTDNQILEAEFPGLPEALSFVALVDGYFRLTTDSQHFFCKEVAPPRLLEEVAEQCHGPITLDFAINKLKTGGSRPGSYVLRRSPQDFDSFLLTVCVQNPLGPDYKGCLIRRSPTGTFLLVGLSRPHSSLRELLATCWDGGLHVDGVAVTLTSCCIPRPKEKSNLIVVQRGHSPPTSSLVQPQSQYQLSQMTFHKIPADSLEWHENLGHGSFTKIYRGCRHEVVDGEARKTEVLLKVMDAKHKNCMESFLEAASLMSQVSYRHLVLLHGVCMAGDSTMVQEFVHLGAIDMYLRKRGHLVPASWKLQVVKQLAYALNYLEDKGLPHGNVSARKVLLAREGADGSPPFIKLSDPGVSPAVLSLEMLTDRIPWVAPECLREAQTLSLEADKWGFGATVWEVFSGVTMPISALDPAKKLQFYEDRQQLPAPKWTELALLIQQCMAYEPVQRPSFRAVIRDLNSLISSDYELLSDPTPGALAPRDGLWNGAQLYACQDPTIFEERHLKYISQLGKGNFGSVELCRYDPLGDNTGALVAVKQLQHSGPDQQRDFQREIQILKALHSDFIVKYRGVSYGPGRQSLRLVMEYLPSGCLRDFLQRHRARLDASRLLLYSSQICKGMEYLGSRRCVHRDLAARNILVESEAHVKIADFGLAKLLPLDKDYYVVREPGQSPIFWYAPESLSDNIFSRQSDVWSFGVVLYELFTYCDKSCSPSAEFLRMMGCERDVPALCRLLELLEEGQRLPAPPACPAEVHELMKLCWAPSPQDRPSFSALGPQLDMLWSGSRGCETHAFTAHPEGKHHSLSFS
Description: as §1

[4] = biological target: Tyk2 (Homo sapiens (Human), UniProt P29597); test: LanthaScreen JAK biochemical assay, Tyk2
Tyk2, sequence (P29597 whole entry): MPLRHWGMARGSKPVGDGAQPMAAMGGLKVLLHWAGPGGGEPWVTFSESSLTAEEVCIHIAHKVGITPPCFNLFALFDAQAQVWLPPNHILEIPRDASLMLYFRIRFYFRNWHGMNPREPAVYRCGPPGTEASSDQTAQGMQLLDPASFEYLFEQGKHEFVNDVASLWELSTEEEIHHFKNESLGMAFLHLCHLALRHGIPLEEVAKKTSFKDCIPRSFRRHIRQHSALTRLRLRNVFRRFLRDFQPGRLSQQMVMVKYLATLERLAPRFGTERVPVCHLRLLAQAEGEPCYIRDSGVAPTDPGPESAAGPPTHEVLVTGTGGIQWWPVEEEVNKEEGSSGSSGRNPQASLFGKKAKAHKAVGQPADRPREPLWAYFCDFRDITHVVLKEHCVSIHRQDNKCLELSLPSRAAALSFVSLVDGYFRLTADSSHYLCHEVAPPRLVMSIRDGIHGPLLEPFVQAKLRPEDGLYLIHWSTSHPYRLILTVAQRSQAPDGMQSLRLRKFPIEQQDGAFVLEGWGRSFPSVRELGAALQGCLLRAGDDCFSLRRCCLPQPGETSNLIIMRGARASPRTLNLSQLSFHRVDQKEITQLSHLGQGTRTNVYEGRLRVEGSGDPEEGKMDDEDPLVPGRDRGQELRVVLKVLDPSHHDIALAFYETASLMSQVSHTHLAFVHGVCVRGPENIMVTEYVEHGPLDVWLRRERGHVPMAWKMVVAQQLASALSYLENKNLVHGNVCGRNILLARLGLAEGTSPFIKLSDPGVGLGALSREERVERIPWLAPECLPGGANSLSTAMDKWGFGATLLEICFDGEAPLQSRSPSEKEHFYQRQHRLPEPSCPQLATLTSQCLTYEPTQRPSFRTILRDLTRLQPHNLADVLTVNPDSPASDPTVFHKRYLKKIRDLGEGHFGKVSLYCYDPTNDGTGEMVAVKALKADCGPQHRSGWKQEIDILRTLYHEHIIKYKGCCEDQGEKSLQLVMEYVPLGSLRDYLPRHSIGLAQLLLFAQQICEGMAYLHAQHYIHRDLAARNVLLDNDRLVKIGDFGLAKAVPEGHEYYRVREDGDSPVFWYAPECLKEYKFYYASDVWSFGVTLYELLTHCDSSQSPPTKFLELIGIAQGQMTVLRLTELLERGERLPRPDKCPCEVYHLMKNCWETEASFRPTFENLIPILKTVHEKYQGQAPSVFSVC
Description: as §1

[5] = tested on: IL-13 induced STAT6 phosphorylation in HT-29 human colorectal adenocarcinoma cells; test: Cellular JAK potency assay: inhibition of IL-13 induced STAT6 phosphorylation; type: cell-based; details: IL-13 induced STAT6 phosphorylation, HT-29 cells
Description: The potency of test compounds for inhibition of the JAK-dependent cytokine interleuken-13 (IL-13) was assessed by measuring IL-13 (IL-13, R&D Systems) induced STAT6 phosphorylation in HT-29 human colorectal adenocarcinoma cells (ATCC).
The anti-STAT6 antibody (Cell Signaling Technologies) was conjugated to AlphaScreen acceptor beads (Perkin Elmer), while the anti-pSTAT6 (pTyr641) antibody (Cell Signaling Technologies) was biotinylated using EZ-Link Sulfo-NHS-Biotin (Thermo Scientific).
HT-29 cells were grown at 37° C. in a 5% CO2 humidified incubator in McCoy's 5a Modified medium (ATCC) supplemented with 10% FBS (Hyclone), 100 U/mL penicillin, 100 μg/mL streptomycin (Life Technologies), and 2 mM GlutaMAX (Life Technologies). On day 1 of the assay, cells were seeded at a 7,500 cells/well density in white poly-D-lysine-coated 384-well plates (Corning) with 25 μL medium, and were allowed to adhere overnight in the incubator. On day 2 of the assay, the medium was removed and replaced with 12 μL of assay buffer (Hank's Balanced Salt Solution/HBSS, 25 mM HEPES, and 1 mg/ml bovine serum albumin/BSA) containing dose-responses of test compounds. Compounds were serially diluted in DMSO and then diluted another 1000-fold in media to bring the final DMSO concentration to 0.1%. Cells were incubated with test compounds at 37° C. for 1 h, and followed by the addition of 12 μL of pre-warmed IL-13 (12 ng/ml in assay buffer) for stimulation. After incubating at 37° C. for 30 min, the assay buffer (containing compound and IL-13) was removed, and 10 μL of cell lysis buffer (25 mM HEPES, 0.1% SDS, 1% NP-40, 5 mM MgCl2, 1.3 mM EDTA, 1 mM EGTA, and supplement with Complete Ultra mini protease inhibitors and PhosSTOP from Roche Diagnostics). The plates were shaken at ambient temperature for 30 min before the addition of detection reagents. A mixture of biotin-anti-pSTAT6 and anti-STAT6 conjugated acceptor beads was added first and incubated at ambient temperature for 2 h, followed by the addition of streptavidin conjugated donor beads (Perkin Elmer). After a minimum of 2 h incubation, the assay plates were read on the EnVision plate reader.
Results were expressed as the negative logarithm of the IC50 value, pIC50.

JAK1, sequence (P23458 whole entry): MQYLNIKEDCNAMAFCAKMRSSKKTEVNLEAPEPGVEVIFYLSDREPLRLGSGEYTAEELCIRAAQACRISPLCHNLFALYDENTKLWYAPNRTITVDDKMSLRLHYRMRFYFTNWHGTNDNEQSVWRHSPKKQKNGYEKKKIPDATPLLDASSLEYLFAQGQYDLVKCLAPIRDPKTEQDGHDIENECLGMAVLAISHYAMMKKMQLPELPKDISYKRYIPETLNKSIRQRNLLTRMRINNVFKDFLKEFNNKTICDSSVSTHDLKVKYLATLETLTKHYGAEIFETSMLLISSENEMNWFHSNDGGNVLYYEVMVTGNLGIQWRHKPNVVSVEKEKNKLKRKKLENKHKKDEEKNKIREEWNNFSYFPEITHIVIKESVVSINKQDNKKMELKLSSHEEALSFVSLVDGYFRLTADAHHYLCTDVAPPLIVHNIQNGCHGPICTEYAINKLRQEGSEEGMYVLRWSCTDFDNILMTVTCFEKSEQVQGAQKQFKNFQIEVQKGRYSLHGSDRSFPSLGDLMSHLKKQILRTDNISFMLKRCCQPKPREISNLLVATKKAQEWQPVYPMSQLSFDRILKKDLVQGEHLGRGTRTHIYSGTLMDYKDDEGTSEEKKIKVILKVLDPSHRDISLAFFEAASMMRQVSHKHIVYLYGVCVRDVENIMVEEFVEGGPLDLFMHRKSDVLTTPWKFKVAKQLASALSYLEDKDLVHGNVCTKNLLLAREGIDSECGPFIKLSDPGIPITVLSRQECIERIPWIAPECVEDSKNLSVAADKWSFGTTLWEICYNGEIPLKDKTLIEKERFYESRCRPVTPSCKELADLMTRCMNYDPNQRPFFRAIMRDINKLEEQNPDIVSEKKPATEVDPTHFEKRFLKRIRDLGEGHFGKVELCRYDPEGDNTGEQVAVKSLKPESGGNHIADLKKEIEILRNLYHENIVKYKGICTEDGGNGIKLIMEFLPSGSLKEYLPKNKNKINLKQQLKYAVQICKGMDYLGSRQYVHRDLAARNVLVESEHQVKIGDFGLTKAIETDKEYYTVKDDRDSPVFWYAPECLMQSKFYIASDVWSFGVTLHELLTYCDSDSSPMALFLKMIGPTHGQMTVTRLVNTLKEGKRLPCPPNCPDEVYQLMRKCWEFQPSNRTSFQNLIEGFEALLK

COc1cc(Nc2cc(CO)[nH]n2)nc(N(C)[C@@H]2C[C@H]3CCC[C@@H](C2)N3CC2(C#N)CC2)n1 [Example 2-6, 1-(((1R,3s,5S)-3-((4-((5-(hydroxymethyl)-1H-pyrazol-3-yl)amino)-6-methoxypyrimidin-2-yl)(methyl)amino)-9-azabicyclo[3.3.1]nonan-9-yl)methyl)cyclopropane-1-carbonitrile]
JAK 1 (pKi) [1]: B (B represents a pKi value between 9 and 10 (Ki between 1 nM and 0.1 nM)) | JAK 2 (pKi) [2]: B (B represents a pKi value between 9 and 10 (Ki between 1 nM and 0.1 nM)) | JAK 3 (pKi) [3]: C (C represents a pKi value between 8 and 9 (Ki between 10 nM and 1 nM)) | Tyk 2 (pKi) [4]: B (B represents a pKi value between 9 and 10 (Ki between 1 nM and 0.1 nM))

COc1cc(Nc2cc(CO)[nH]n2)nc(N(C)[C@@H]2C[C@H]3CCC[C@@H](C2)N3C(C)=O)n1 [Example 3-6]
JAK 1 (pKi) [1]: B (B represents a pKi value between 9 and 10 (Ki between 1 nM and 0.1 nM)) | JAK 2 (pKi) [2]: B (B represents a pKi value between 9 and 10 (Ki between 1 nM and 0.1 nM)) | Tyk 2 (pKi) [4]: C (C represents a pKi value between 8 and 9 (Ki between 10 nM and 1 nM))

COc1cc(Nc2cc(CO)[nH]n2)nc(N(C)[C@@H]2C[C@H]3CCC[C@@H](C2)N3C(=O)CC2CC2)n1 [Example 3-5, 2-cyclopropyl-1-((1R,3s,5S)-3-((4-((5-(hydroxymethyl)-1H-pyrazol-3-yl)amino)-6-methoxypyrimidin-2-yl)(methyl)amino)-9-azabicyclo[3.3.1]nonan-9-yl)ethan-1-one]
JAK 1 (pKi) [1]: B (B represents a pKi value between 9 and 10 (Ki between 1 nM and 0.1 nM)) | JAK 2 (pKi) [2]: B (B represents a pKi value between 9 and 10 (Ki between 1 nM and 0.1 nM)) | Tyk 2 (pKi) [4]: B (B represents a pKi value between 9 and 10 (Ki between 1 nM and 0.1 nM))

COc1cc(Nc2cc(CO)[nH]n2)nc(N(C)[C@@H]2C[C@H]3CCC[C@@H](C2)N3C(=O)N2CCOCC2)n1 [Example 3-4, ((1R,3s,5S)-3-((4-((5-(hydroxymethyl)-1H-pyrazol-3-yl)amino)-6-methoxy-pyrimidin-2-yl)(methyl)amino)-9-azabicyclo[3.3.1]nonan-9-yl)(morpholino)methanone]
JAK 1 (pKi) [1]: B (B represents a pKi value between 9 and 10 (Ki between 1 nM and 0.1 nM)) | JAK 2 (pKi) [2]: B (B represents a pKi value between 9 and 10 (Ki between 1 nM and 0.1 nM)) | Tyk 2 (pKi) [4]: B (B represents a pKi value between 9 and 10 (Ki between 1 nM and 0.1 nM))

COc1cc(Nc2cc(CO)[nH]n2)nc(N(C)[C@@H]2C[C@H]3CCC[C@@H](C2)N3C(=O)C2CCC2)n1 [Example 3-8, cyclobutyl((1R,3s,5S)-3-((4-((5-(hydroxymethyl)-1H-pyrazol-3-yl)amino)-6-methoxypyrimidin-2-yl)(methyl)amino)-9-azabicyclo[3.3.1]nonan-9-yl)methanone]
JAK 1 (pKi) [1]: B (B represents a pKi value between 9 and 10 (Ki between 1 nM and 0.1 nM)) | JAK 2 (pKi) [2]: B (B represents a pKi value between 9 and 10 (Ki between 1 nM and 0.1 nM)) | Tyk 2 (pKi) [4]: B (B represents a pKi value between 9 and 10 (Ki between 1 nM and 0.1 nM))

COc1cc(Nc2cc(CO)[nH]n2)nc(N(C)[C@@H]2C[C@H]3CCC[C@@H](C2)N3CCC#N)n1 [Example 2-5, 3-((1R,3s,5S)-3-((4-((5-(hydroxymethyl)-1H-pyrazol-3-yl)amino)-6-methoxypyrimidin-2-yl)(methyl)amino)-9-azabicyclo[3.3.1]nonan-9-yl)propanenitrile]
JAK 1 (pKi) [1]: B (B represents a pKi value between 9 and 10 (Ki between 1 nM and 0.1 nM)) | JAK 2 (pKi) [2]: B (B represents a pKi value between 9 and 10 (Ki between 1 nM and 0.1 nM)) | JAK 3 (pKi) [3]: D (D represents a pKi value between 7.5 and 8 (Ki between 31.6 nM and 10 nM)) | Tyk 2 (pKi) [4]: C (C represents a pKi value between 8 and 9 (Ki between 10 nM and 1 nM))

COc1cc(Nc2cc(CO)[nH]n2)nc(N(C)[C@@H]2C[C@H]3CCC[C@@H](C2)N3C(=O)C(F)F)n1 [Example 9, 2,2-difluoro-1-((1R,3s,5S)-3-((4-((5-(hydroxymethyl)-1H-pyrazol-3-yl)amino)-6-methoxypyrimidin-2-yl)(methyl)amino)-9-azabicyclo[3.3.1]nonan-9-yl)ethan-1-one]
Ki [1]: 0.1 to 1 nM | Ki ([2]; read-out: JAK 2 (pKi) (converted)): 0.1 to 1 nM | Ki ([3]; read-out: JAK 3 (pKi) (converted)): 10 to 31.6 nM | Ki ([4]; read-out: Tyk 2 (pKi) (converted)): 0.1 to 1 nM

COc1cc(Nc2cc(CO)[nH]n2)nc(N(C)[C@@H]2C[C@H]3CCC[C@@H](C2)N3C(=O)C2CCCC2)n1 [Example 3-7, cyclopentyl((1R,3s,5S)-3-((4-((5-(hydroxymethyl)-1H-pyrazol-3-yl)amino)-6-methoxypyrimidin-2-yl)(methyl)amino)-9-azabicyclo[3.3.1]nonan-9-yl)methanone]
JAK 1 (pKi) [1]: B (B represents a pKi value between 9 and 10 (Ki between 1 nM and 0.1 nM)) | JAK 2 (pKi) [2]: B (B represents a pKi value between 9 and 10 (Ki between 1 nM and 0.1 nM)) | Tyk 2 (pKi) [4]: B (B represents a pKi value between 9 and 10 (Ki between 1 nM and 0.1 nM))

COc1cc(Nc2cc(CO)[nH]n2)nc(N(C)[C@@H]2C[C@H]3CCC[C@@H](C2)N3C(=O)OCC(C)C)n1 [Example 3-2, isobutyl (1R,3s,5S)-3-((4-((5-(hydroxymethyl)-1H-pyrazol-3-yl)amino)-6-methoxypyrimidin-2-yl)(methyl)amino)-9-azabicyclo[3.3.1]nonane-9-carboxylate]
JAK 1 (pKi) [1]: B (B represents a pKi value between 9 and 10 (Ki between 1 nM and 0.1 nM)) | JAK 2 (pKi) [2]: B (B represents a pKi value between 9 and 10 (Ki between 1 nM and 0.1 nM)) | Tyk 2 (pKi) [4]: B (B represents a pKi value between 9 and 10 (Ki between 1 nM and 0.1 nM))

COC(=O)N1[C@@H]2CCC[C@H]1C[C@H](N(C)c1nc(Nc3cc(CO)[nH]n3)cc(OC)n1)C2 [Example 3-3, methyl (1R,3s,5S)-3-((4-((5-(hydroxymethyl)-1H-pyrazol-3-yl)amino)-6-methoxypyrimidin-2-yl)(methyl)amino)-9-azabicyclo[3.3.1]nonane-9-carboxylate]
JAK 1 (pKi) [1]: B (B represents a pKi value between 9 and 10 (Ki between 1 nM and 0.1 nM)) | JAK 2 (pKi) [2]: B (B represents a pKi value between 9 and 10 (Ki between 1 nM and 0.1 nM)) | Tyk 2 (pKi) [4]: C (C represents a pKi value between 8 and 9 (Ki between 10 nM and 1 nM))

COc1cc(Nc2cc(CO)[nH]n2)nc(N[C@@H]2C[C@H]3CCC[C@@H](C2)N3Cc2ccnc(C#N)c2)n1 [Example 2-3, 4-(((1R,3s,5S)-3-((4-((5-(hydroxymethyl)-1H-pyrazol-3-yl)amino)-6-methoxypyrimidin-2-yl)amino)-9-azabicyclo[3.3.1]nonan-9-yl)methyl)picolinonitrile]
JAK 1 (pKi) [1]: B (B represents a pKi value between 9 and 10 (Ki between 1 nM and 0.1 nM)) | HT-29 (pIC50) [5]: B (B represents a pIC50 value between 6.7 and 7.5 (IC50 between 200 nM and 32 nM))

COc1cc(Nc2cc(CO)[nH]n2)nc(N[C@@H]2C[C@H]3CC[C@@H](C2)N3S(=O)(=O)c2cccnc2)n1 [Example 1-3]
Ki [1]: 1 to 10 nM | IC50 ([5]; Homo sapiens, read-out: HT-29 (pIC50) (converted)): 200 to 1000 nM

COc1cc(Nc2cc(CO)[nH]n2)nc(N[C@@H]2C[C@H]3CCC[C@@H](C2)N3S(=O)(=O)N2CC(C#N)C2)n1 [Example 1-6, 1-(((1R,3s,5S)-3-((4-((5-(hydroxymethyl)-1H-pyrazol-3-yl)amino)-6-methoxypyrimidin-2-yl)amino)-9-azabicyclo[3.3.1]nonan-9-yl)sulfonyl)azetidine-3-carbonitrile]
JAK 1 (pKi) [1]: A (A represents a pKi value≥10 (Ki≤0.1 nM)) | HT-29 (pIC50) [5]: B (B represents a pIC50 value between 6.7 and 7.5 (IC50 between 200 nM and 32 nM))
